Source: patent US8298582B2, “Polysaccharide-based impregnated solid material with improved stability, processes for the preparation thereof and impregnating solutions used” (Hydro-Quebec, priority 2006, dated 2012)

Columns and labels:
[1] = Resistance to leaching, modified AWPA procedure E11-06 (5 faces protected); assay type: physicochemical
Description: This technique is based on AWPA protocol E11-06. The blocks are soaked in demineralized water at ambient temperature. Water samples are taken regularly and an analysis by ICP spectrometry is carried out (after dilution of the solution by a factor of 250) in order to evaluate the amount of boron present in the solution. The results are represented in FIGS. 5 and 5′.

Postia placenta = test: Soil-block culture test, AWPA protocol E10-06, on leached treated wood blocks; assay type: cell-based; settings: after 20 weeks of exposure, red pine sapwood blocks leached one week before the test
Description: (§1) Tests for evaluating the degradation-resistance of the wood according to various treatments were carried out by following AWPA protocol E10-06. These tests were carried out using two brown rots: Postia placenta and Gleophyllum trabeum.
(§2) These two preparations are used to treat blocks of 19 mm×19 mm×19 mm of red pine sapwood by means of a partial vacuum of −65 cmHg maintained for 30 minutes. This type of solution forms a gel in the cells of the wood after a period of one hour. In order to accelerate the crosslinking process and to allow drying, the blocks are heated overnight at 60° C.
(§3) In order to validate the capacity of our treatment to retain the boron in the wood and to play its role of wood-preserving agent, the treated blocks were soaked for one week in demineralized water in order to extract all traces of non-chelated boric acid or DOT.
(§4) After drying, the blocks were subjected to the laboratory “soil-block” culture test, strictly according to AWPA protocol E10-06.

Gleophyllum trabeum = test: as above; assay type: cell-based; settings: after 20 weeks of exposure, red pine sapwood blocks leached one week before the test
Description: as §1, §2, §3, §4

OB(O)O [Boric acid, boric acid]
loss of boron ([1]; over a period of 8 days, red pine sapwood cubes): 67%
loss of boron ([1]; over a period of 15 days): 32%
Weight loss (%) Postia placenta (Postia placenta): 67.5%
Weight loss (%) Postia placenta (Postia placenta; listed as boric acid): substantial loss
Weight loss (%) Gleophyllum trabeum (Gleophyllum trabeum): 67.5%
Weight loss (%) Gleophyllum trabeum (Gleophyllum trabeum; listed as boric acid): substantial loss
